Tested on: anaerobic microbial consortium or consortia indigenous to the coal
Test: Hydrogen gas accumulated in headspace of amended Dietz coal slurries
Settings: approximately 134 days of incubation
From the text: Core samples from the Tongue River area in the northwest portion of the Powder River Basin, Dietz coal seam, were utilized for these experiments. The core was collected in the field in a manner that prevented oxygen exposure by placing it into a steel canister that was purged with argon. Gas in the core used for the experiments described herein was extensively desorbed during long-term storage and previous use.
Coal samples were passed through a small jaw crusher twice resulting in pulverized coal (to yield a particle size similar to that of granulated sugar) that was measured into serum bottles (5 g per bottle); manipulations were carried out in an anaerobic environment. […]
Bromoethanesulfonic acid (BESA), a methanogen inhibitor, was added to selected incubations. […] Hydrogen production in the amended slurries relative to sterile coal slurries was measured to identify the degree of stimulation.
After approximately 134 days of incubation, all of the coal slurries were sampled for the aqueous phase (0.5 of 10 ml) and for gas analysis including hydrogen, methane, carbon dioxide, radioactive methane, and radioactive carbon dioxide. Methane and carbon dioxide were determined using a Hewlett Packard 5890 gas chromatograph equipped with a thermal conductivity detector. Radiolabeled methane and carbon dioxide were determined using a gas proportional counter (Innus Systems, Tampa, Fla.). […]

Bromoethanesulfonic acid [BESA]
hydrogen gas accumulation in the headspace, result in words: Hydrogen accumulated to the greatest extent

— patent publication US9057082B2, “Generation of methane from hydrocarbon bearing materials” (Transworld Technologies Inc., priority 2004, dated 2015)
